Measurements as given in patent US6207399A, “Methods of determining endogenous thrombin potential (ETP) and thrombin substrates for use in said methods” (Hemker; Hendrik Coenraad, priority 1995, dated 2001).
Peptide text beside a SMILES is read from it. * marks the point of attachment. pNA = O=[N+]([O-])c1ccc(N*)cc1

Columns and labels:
[1] = target: T1, human α-thrombin (Homo sapiens, UniProt P00734); assay: Kinetics of hydrolysis of substrates by human α-thrombin in buffer A at 37° C. (Example 2, Table 1); format: biochemical
T1 construct: Pure human α-thrombin; gift of Dr. T. Lindhout (University of Limburg, Maastricht)
Summary of the method: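 p-Nitroaniline release was followed at 405 nm (dual wavelength 405-546 nm) in buffer A at 37° C, with substrate at 1 to 2000 μM (at least six levels) preincubated 5 min before enzyme at 0.5 to 100 nM. Km and kcat came from initial velocities fitted to Michaelis-Menten by linear regression, from one or two experiments.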

[2] = target: T2, factor Xa (Homo sapiens, UniProt P00742); assay: Kinetics of hydrolysis of substrates by human factor Xa in buffer A at 37° C. (Example 2, Table 2); format: biochemical; parameters: key to kcat: NH: not hydrolyzed by factor Xa
T2 construct: human factor Xa samples; gift of Dr. T. Lindhout (University of Limburg, Maastricht)
T2 sequence (P00742 41-179 limits assumed): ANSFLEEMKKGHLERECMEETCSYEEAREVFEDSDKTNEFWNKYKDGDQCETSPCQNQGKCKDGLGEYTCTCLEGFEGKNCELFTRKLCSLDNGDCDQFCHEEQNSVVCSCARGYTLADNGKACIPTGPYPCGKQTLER
T2 sequence (P00742 235-488 limits assumed): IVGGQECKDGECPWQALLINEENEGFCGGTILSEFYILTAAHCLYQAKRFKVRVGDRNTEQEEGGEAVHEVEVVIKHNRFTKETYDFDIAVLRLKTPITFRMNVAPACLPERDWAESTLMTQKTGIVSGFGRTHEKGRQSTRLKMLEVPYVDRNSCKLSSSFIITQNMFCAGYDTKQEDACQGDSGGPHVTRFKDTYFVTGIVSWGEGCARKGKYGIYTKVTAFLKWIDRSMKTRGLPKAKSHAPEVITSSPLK
Method: Kinetic parameters: The hydrolysis experiments were run in buffer A at 37° C. The liberation of p-nitroaniline was monitored at 405 nm in a dual wavelength (405-546 nm) spectrophotometer made in our workshop, using a personal computer for data recording. In a polystyrene microcuvette (total volume 500 μL), buffer A and substrate solution were added to obtain a final substrate concentration between 1 to 2000 μM. After 5 min of incubation at 37° C., enzyme solution was added to achieve a final concentration between 0.5 to 100 nM. The measurement was carried out at 37° C. in a thermostated cuvette-holder. The Michaelis constant (Km) and the catalytic constant (kcat) were obtained by measuring initial reaction velocities at different substrate concentrations. The data obtained were fitted by linear regression on the Michaelis-Menten equation.
Kinetic parameters: In a preliminary experiment, the substrate was hydrolyzed under the following conditions: enzyme concentration: 10 to 20 nM, substrate concentration: 200 μM in buffer A to get an impression of the initial velocity. […] The results are given in table 1 and 2 for thrombin and factor Xa respectively. The Km and kcat for each substrate were determined from the initial velocities measured for at least six substrate concentrations in the concentration range as given. The enzyme concentration used gives a good signal to noise ratio. The data given are obtained from one or two experiments. The data from table 1 and 2 were only used as the first selection criterion to get a rough impression of the hydrolysis behaviour. Notwithstanding the preliminary character of the measurement it was helpful in the design of the substrates of our interest.

[3] = target: T2, factor Xa; assay: Kinetic parameters of hydrolysis of the substrates by factor Xa in buffer A at 37° C. (Example 4, Table 3); format: biochemical; parameters: key to Factor Xa kcat: NH: no hydrolysis; conditions: buffer A, 37° C., 50 nM factor Xa
Summary of the method: (§1)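 p-Nitroaniline release followed at 405 nm in buffer A at 37 °C, with at least six substrate levels of 200–2000 μM. Thrombin at 0.5–50 nM, factor Xa at 50 nM; Km and kcat from initial velocities by linear regression on Michaelis-Menten.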

[4] = target: T3, euglobulin thrombin (Homo sapiens, UniProt P00734); assay: Decay constants of thrombin in plasma; format: biochemical
T3 construct: The euglobulin thrombin fraction was prepared from defibrinated human plasma; from tissue; host or cells: defibrinated human plasma (euglobulin fraction, acid precipitation, method of Josso and Prou-Wartelle)
Method: (§2) To this mixture was added 10 μL of a thrombin preparation to achieve a final concentration of 100 nM. At regular time intervals (5-10 s) 10 μL samples were subsampled into 490 μL buffer B which contained 200 μM of S2238 to determine thrombin activity. After 2 min the reaction was stopped by adding 300 μL 1M citric acid. The moment of sampling and stopping were recorded on a personal computer with pushbutton-equipped pipettes. The optical density was then read at 405 nm and the obtained amidolytic activities were used to calculate the decay constants. The obtained decay constant is the sum of the decay constants of the reaction of thrombin with antithrombin III (k1) and α2 -macroglobulin (k2).
as §2, with “Decay constants of thrombin in plasma: To 120 μL defibrinated plasma was added: 50 μL of buffer A which contained the substances to be tested. To” for “To”, “was” for “was then”

[5] = tested on: thrombin; conditions: Svendsen et al; cited from earlier work
[6] = target: thrombin (Homo sapiens, UniProt P00734); assay: Kinetic parameters of hydrolysis of the substrates by thrombin in buffer A at 37° C. (Example 4, Table 3); format: biochemical; parameters: Pure human α-thrombin; gift of Dr. T. Lindhout (University of Limburg, Maastricht); conditions: buffer A, 37° C.
Summary of the method: as §1

Km [1]: 1240 µM | kcat [1]: 0.23 s⁻¹ | kcat /Km [1]: 186 M/s | kcat [2]: NH | Factor Xa kcat [3]: NH | k1 : AT-III dependent decay of thrombin ([4]; [S] 100 μM in plasma): 2.064 min⁻¹ | k2 : α2 M dependent decay of thrombin ([4]; [S] 100 μM in plasma): 0.253 min⁻¹ | koverall ([4]; [S] 100 μM in plasma): 2.317 min⁻¹ | t1/2 ([4]; [S] 100 μM in plasma): 17.95 s | (k1,corr) = k1,corr divided by μM AT-III ([4]; [S] 200 μM in plasma): 21430 M⁻¹ s⁻¹ | k1,corr : k1 after correcting for k2,M and 0.170 ([4]; [S] 200 μM in plasma): 1.750 min⁻¹ | k1 : AT-III dependent decay of thrombin ([4]; [S] 200 μM in plasma): 1.751 min⁻¹ | k2 : α2 M dependent decay of thrombin ([4]; [S] 200 μM in plasma): 0.402 min⁻¹ | koverall ([4]; [S] 200 μM in plasma): 2.154 min⁻¹ | t1/2 ([4]; [S] 200 μM in plasma): 19.31 s | (k1,corr) = k1,corr divided by μM AT-III ([4]; [S] 500 μM in plasma): 18630 M⁻¹ s⁻¹ | k1,corr : k1 after correcting for k2,M and 0.170 ([4]; [S] 500 μM in plasma): 1.521 min⁻¹ | k1 : AT-III dependent decay of thrombin ([4]; [S] 500 μM in plasma): 1.509 min⁻¹ | k2 : α2 M dependent decay of thrombin ([4]; [S] 500 μM in plasma): 0.389 min⁻¹ | koverall ([4]; [S] 500 μM in plasma): 1.898 min⁻¹ | t1/2 ([4]; [S] 500 μM in plasma): 21.91 s | (k1,corr) = k1,corr divided by μM AT-III ([4]; [S] 1000 μM in plasma): 18500 M⁻¹ s⁻¹ | k1,corr : k1 after correcting for k2,M and 0.170 ([4]; [S] 1000 μM in plasma): 1.510 min⁻¹ | k1 : AT-III dependent decay of thrombin ([4]; [S] 1000 μM in plasma): 1.676 min⁻¹ | k2 : α2 M dependent decay of thrombin ([4]; [S] 1000 μM in plasma): 0.204 min⁻¹ | koverall ([4]; [S] 1000 μM in plasma): 1.879 min⁻¹ | t1/2 ([4]; [S] 1000 μM in plasma): 27.12 s | k1 : AT-III dependent decay of thrombin ([4]; [S] 1500 μM in plasma): 1.087 min⁻¹ | k2 : α2 M dependent decay of thrombin ([4]; [S] 1500 μM in plasma): 0.130 min⁻¹ | koverall ([4]; [S] 1500 μM in plasma): 1.217 min⁻¹ | t1/2 ([4]; [S] 1500 μM in plasma): 34.17 s | k1 : AT-III dependent decay of thrombin ([4]; [S] 2000 μM in plasma): 0.877 min⁻¹ | k2 : α2 M dependent decay of thrombin ([4]; [S] 2000 μM in plasma): 0.128 min⁻¹ | koverall ([4]; [S] 2000 μM in plasma): 1.005 min⁻¹ | t1/2 ([4]; [S] 2000 μM in plasma): 41.37 s | Km [6]: 1240 µM | Thrombin kcat [6]: 0.23 s⁻¹ | Thrombin kcat /Km [6]: 186 M/s
SMILES: CC(C)[C@H](N)C(=O)N[C@@H](CCCNC(=N)N)C(=O)Nc1ccc([N+](=O)[O-])cc1.Cl.Cl [2HCl.H-Val-Arg-pNA] (H-Val-Arg-pNA)
factor by which poorer substrate for thrombin than Benzoyl-Phe-Val-Arg-p-nitroanilide [5]: ≥ 100
